Data on 19 molecules can be found in patent US5608091A, “Quinizarin compound, method for production thereof, and use therefor” (Nippon Shokubai Co., Ltd., priority 1993, dated 1997).

Structures are written as SMILES.

Holding throughout (type): physicochemical
Data set [1] is described as follows: Visible absorption spectrum (λmax, ε). As to conditions: for ε: in M-1 cm-1 (unit assumed).
A short description of data set [2]: Solubility in toluene and methyl ethyl ketone, three-point scale. The source says:
In these tables, the solubility is rated on the three-point scale, wherein Δ stands for a solubility of less than 1% by weight, .largecircle. for a solubility in the approximate range of 1 to 3% by weight, and .circleincircle. for a solubility of not less than 3% by weight.

Data set [3] in a line: Color tone of the dye. As to conditions: Tables 1-9.

Consider `O=C1c2c(O)ccc(O)c2C(=O)c2c(F)c(Nc3ccccc3)c(Nc3ccccc3)c(F)c21` [(120)], for which, in data set [1] (in chloroform), the λ max came to 648 nm. Besides, the ε in data set [1] (in chloroform, at λ max) worked out at 19800. Moreover, the “Solubility in methyl ethyl ketone” value in data set [2] is given as “Δ (a solubility of less than 1% by weight)”. Moreover, in data set [2] (in toluene), the Solubility in toluene entry is listed as “Δ (a solubility of less than 1% by weight)”. Besides, the Color tone result in data set [3] is “Cyan”.

In the case of `CCCCOC(=O)c1ccccc1Nc1c(F)c(F)c2c(c1F)C(=O)c1c(O)ccc(O)c1C2=O` [(5)], in data set [1] (in chloroform), the λ max is listed as 530 nm. For the same molecule, in data set [1] (in chloroform, at λ max), the ε is 8600. Also, the “Solubility in methyl ethyl ketone” value in data set [2] was “.circleincircle. (a solubility of not less than 3% by weight)”. Moreover, the Solubility in toluene entry in data set [2] (in toluene) is recorded as “.circleincircle. (a solubility of not less than 3% by weight)”. Besides, the Color tone result in data set [3] is given as “Magenta”.

As to `CC(C)(C)Sc1c(F)c2c(c(F)c1SC(C)(C)C)C(=O)c1c(O)ccc(O)c1C2=O` [(305)], the λ max in data set [1] (in chloroform) is reported as 506 nm. In data set [1] (in chloroform, at λ max), this molecule registered a ε of 15300. Besides, the “Solubility in methyl ethyl ketone” value in data set [2] is given as “.circleincircle. (a solubility of not less than 3% by weight)”. For the same molecule, the Solubility in toluene result in data set [2] (in toluene) is “.circleincircle. (a solubility of not less than 3% by weight)”. Moreover, the Color tone entry in data set [3] was “Orange”.

In data set [1] (in chloroform), `CCCCCCCCSc1c(F)c2c(c(F)c1SCCCCCCCC)C(=O)c1c(O)ccc(O)c1C2=O` [(304)] gave a λ max of 504 nm. For the same molecule, the ε in data set [1] (in chloroform, at λ max) is 14600. Moreover, in data set [2], the “Solubility in methyl ethyl ketone” value is “.largecircle. (a solubility in the approximate range of 1 to 3% by weight)”. The Solubility in toluene entry in data set [2] (in toluene) is reported as “.largecircle. (a solubility in the approximate range of 1 to 3% by weight)”. Also, in data set [3], the Color tone entry was “Orange”.

`CC(C)(C)c1ccc(Nc2c(F)c3c(c(F)c2Nc2ccc(C(C)(C)C)cc2)C(=O)c2c(O)ccc(O)c2C3=O)cc1` [(130)] yielded a λ max in data set [1] (in chloroform) of 660 nm. The molecule further came in with a ε in data set [1] (in chloroform, at λ max) of 26700. In data set [2], the “Solubility in methyl ethyl ketone” value is “.largecircle. (a solubility in the approximate range of 1 to 3% by weight)”. The Solubility in toluene result in data set [2] (in toluene) is reported as “.largecircle. (a solubility in the approximate range of 1 to 3% by weight)”. The Color tone result in data set [3] is listed as “Cyan”.

In data set [1] (in chloroform), `O=C1c2c(O)ccc(O)c2C(=O)c2c(F)c(Oc3ccccc3)c(Nc3c(Cl)cccc3Cl)c(F)c21` [(110)] registered a λ max of 521.0 nm. In addition, the ε in data set [1] (in chloroform, at λ max) stood at 17900.

The molecule `O=C1c2c(O)ccc(O)c2C(=O)c2c(F)c(Nc3ccc([N+](=O)[O-])cc3)c(F)c(F)c21` [(12)] yielded a λ max in data set [1] (in chloroform) of 521 nm. This molecule also gave a ε in data set [1] (in chloroform, at λ max) of 16300. Further, the “Solubility in methyl ethyl ketone” value in data set [2] is “Δ (a solubility of less than 1% by weight)”. The Solubility in toluene result in data set [2] (in toluene) was “Δ (a solubility of less than 1% by weight)”. The Color tone entry in data set [3] is recorded as “Magenta”.

As to `COc1cccc(Nc2c(F)c3c(c(F)c2Nc2cccc(OC)c2)C(=O)c2c(O)ccc(O)c2C3=O)c1` [(133)], the λ max in data set [1] (in chloroform) stood at 651 nm. For the same molecule, in data set [1] (in chloroform, at λ max), the ε was 13400. For the same molecule, in data set [2], the “Solubility in methyl ethyl ketone” value is given as “.largecircle. (a solubility in the approximate range of 1 to 3% by weight)”. For the same molecule, the Solubility in toluene result in data set [2] (in toluene) is “.largecircle. (a solubility in the approximate range of 1 to 3% by weight)”. Moreover, the Color tone result in data set [3] is given as “Cyan”.

For `COc1ccccc1Nc1c(F)c(F)c2c(c1F)C(=O)c1c(O)ccc(O)c1C2=O` [(14)], in data set [1] (in chloroform), the λ max was 557 nm. In data set [1] (in chloroform, at λ max), this molecule came in with a ε of 15300. Further, the “Solubility in methyl ethyl ketone” value in data set [2] is “.largecircle. (a solubility in the approximate range of 1 to 3% by weight)”. Also, the Solubility in toluene entry in data set [2] (in toluene) was “.largecircle. (a solubility in the approximate range of 1 to 3% by weight)”. Also, in data set [3], the Color tone result was “Purple”.

Molecule `O=C1c2c(O)ccc(O)c2C(=O)c2c(F)c(Nc3c(Cl)cccc3Cl)c(Nc3c(Cl)cccc3Cl)c(F)c21` [(138)] returned a λ max in data set [1] (in chloroform) of 630 nm. The ε in data set [1] (in chloroform, at λ max) came to 22300. Also, the “Solubility in methyl ethyl ketone” value in data set [2] was “.largecircle. (a solubility in the approximate range of 1 to 3% by weight)”. The Solubility in toluene result in data set [2] (in toluene) was “.largecircle. (a solubility in the approximate range of 1 to 3% by weight)”. Also, the Color tone entry in data set [3] was “Blue”.

In turn, `CCCCNc1c(F)c(F)c2c(c1F)C(=O)c1c(O)ccc(O)c1C2=O` [(117)] gave a λ max in data set [1] (in chloroform) of 533 nm. The ε in data set [1] (in chloroform, at λ max) is listed as 17900. Further, the “Solubility in methyl ethyl ketone” value in data set [2] was “.largecircle. (a solubility in the approximate range of 1 to 3% by weight)”. Further, in data set [2] (in toluene), the Solubility in toluene entry is given as “.largecircle. (a solubility in the approximate range of 1 to 3% by weight)”. In addition, in data set [3], the Color tone result is on record as “Magenta”.

As for `CCCCOC(=O)c1ccccc1Nc1c(F)c2c(c(F)c1Nc1ccccc1C(=O)OCCCC)C(=O)c1c(O)ccc(O)c1C2=O` [(122)], the λ max in data set [1] (in chloroform) worked out at 614 nm. Also, in data set [1] (in chloroform, at λ max), the ε was found to be 14700. For the same molecule, the “Solubility in methyl ethyl ketone” value in data set [2] was “.largecircle. (a solubility in the approximate range of 1 to 3% by weight)”. The Solubility in toluene entry in data set [2] (in toluene) is listed as “.largecircle. (a solubility in the approximate range of 1 to 3% by weight)”. Besides, the Color tone entry in data set [3] is “Blue”.

Take `CCCCCCSc1c(F)c2c(c(F)c1SCCCCCC)C(=O)c1c(O)ccc(O)c1C2=O` [(303)]: the λ max in data set [1] (in chloroform) is on record as 506 nm. This molecule also registered a ε in data set [1] (in chloroform, at λ max) of 11300. Also, the “Solubility in methyl ethyl ketone” value in data set [2] is on record as “.largecircle. (a solubility in the approximate range of 1 to 3% by weight)”. Besides, the Solubility in toluene entry in data set [2] (in toluene) was “.largecircle. (a solubility in the approximate range of 1 to 3% by weight)”. In addition, the Color tone entry in data set [3] is on record as “Orange”.

The molecule `COc1ccccc1Nc1c(F)c2c(c(F)c1Nc1ccccc1OC)C(=O)c1c(O)ccc(O)c1C2=O` [(131)] registered a λ max in data set [1] (in chloroform) of 661 nm. Also, the ε in data set [1] (in chloroform, at λ max) turned out to be 15600. Also, the “Solubility in methyl ethyl ketone” value in data set [2] is listed as “.largecircle. (a solubility in the approximate range of 1 to 3% by weight)”. Also, the Solubility in toluene entry in data set [2] (in toluene) is given as “.largecircle. (a solubility in the approximate range of 1 to 3% by weight)”. In data set [3], the Color tone result is on record as “Cyan”.

Consider `CC(C)c1cccc(C(C)C)c1Nc1c(F)c2c(c(Nc3c(C(C)C)cccc3C(C)C)c1Nc1c(C(C)C)cccc1C(C)C)C(=O)c1c(O)ccc(O)c1C2=O` [Dye (245), 5,6,7-tris(2,6-diisopropylanilino)-8-fluoroquinizarin], for which the ε in data set [1] (in ethyl cellosolve) came out at 29200.

In the case of `CCCCCCCCOc1c(F)c2c(c(F)c1Nc1cccc(C(=O)OCC)c1)C(=O)c1c(O)ccc(O)c1C2=O` [(34)], in data set [1] (in chloroform), the λ max is on record as 531 nm. In addition, the ε in data set [1] (in chloroform, at λ max) worked out at 12400. The “Solubility in methyl ethyl ketone” value in data set [2] was “.circleincircle. (a solubility of not less than 3% by weight)”. In addition, in data set [2] (in toluene), the Solubility in toluene entry is recorded as “.circleincircle. (a solubility of not less than 3% by weight)”. In addition, the Color tone entry in data set [3] is “Magenta”.

In data set [1] (in toluene), `CC(C)c1cccc(C(C)C)c1Nc1ccc2c(c1)C(=O)c1c(O)ccc(O)c1C2=O` [(99)] had a λ max of 560 nm and a ε of 14850. For the same molecule, the Solubility result in data set [2] (in toluene) was “Not less than 3 % by weight”.

Take `O=C1c2c(O)ccc(O)c2C(=O)c2c(F)c(Nc3ccc(S(=O)(=O)O)cc3)c(F)c(F)c21` [(27)]: in data set [1] (in methanol), the λ max is 521.5 nm and the ε is listed as 10600.

In data set [1] (in chloroform), `CCOC(=O)c1cccc(Nc2c(F)c3c(c(F)c2Sc2ccccc2)C(=O)c2c(O)ccc(O)c2C3=O)c1` [(115)] yielded a λ max of 540 nm. This molecule gave a ε in data set [1] (in chloroform, at λ max) of 17000.
